# Data as given in patent US20090029949A1, “GPCR Ligands Identified by Computational Modeling” (priority 2006, published 2009).
# Entries after “also recorded” stand apart in the source; their conditions may differ. Peptide text beside a SMILES is read from it. * marks the point of attachment. Dnp = O=[N+]([O-])c1ccc(*)c([N+](=O)[O-])c1
# Target: T1, S1P1 mutant V6.40L (Homo sapiens, UniProt P21453, V261L)
# T1 construct: expressed in transfected cells; host or cells: RH7777
# Assay: [35S]GTPγS binding, S1P1 V6.40L
# Type: biochemical
# Settings: S1P1 V6.40L, result in words
# Experimental: (§1) RH7777 and HEK-293 cells (ATCC, Manassas, Va.) were maintained in Dulbecco's modified minimal essential medium (DMEM) containing 10% fetal bovine serum (Hyclone, Logan, Utah). Cells (2×10^6) were transfected with 2 μg of plasmid DNA with Effectene (Qiagen, Valencia, Calif.) according to the manufacturer's instructions, for 24 h. Before ligand binding and receptor activation assays, the cells were washed twice with serum-free DMEM and serum-starved for at least 6 h.
# (§2) S1P1 Receptor Activation Assays Receptor functional assays were performed in transiently transfected RH7777 cells by measuring S1P-activated [^35S]GTPγS binding as previously described (28).
# T1 sequence (P21453 whole entry V261L): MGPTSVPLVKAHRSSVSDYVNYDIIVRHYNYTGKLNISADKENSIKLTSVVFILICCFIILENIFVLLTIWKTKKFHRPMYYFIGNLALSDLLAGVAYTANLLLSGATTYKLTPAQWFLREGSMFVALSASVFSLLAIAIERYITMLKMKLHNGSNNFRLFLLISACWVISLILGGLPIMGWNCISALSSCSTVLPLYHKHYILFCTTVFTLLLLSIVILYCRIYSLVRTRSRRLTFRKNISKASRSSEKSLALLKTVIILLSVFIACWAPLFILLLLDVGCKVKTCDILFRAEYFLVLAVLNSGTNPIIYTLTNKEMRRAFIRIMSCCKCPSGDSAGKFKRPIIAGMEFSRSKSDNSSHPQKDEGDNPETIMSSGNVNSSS
row,Structure (SMILES),ligand-induced GTPγS activation
1,FC(F)(F)c1cccc(-c2noc(-c3cc(-c4ccccc4)c(C(F)(F)F)s3)n2)c1 [SEW2871],slightly activated; also recorded: partial activation

# Same assay, conditions: S1P1 V6.40L, result in words; listed as SE2871
row,Structure (SMILES),ligand-induced GTPγS activation
1,FC(F)(F)c1cccc(-c2noc(-c3cc(-c4ccccc4)c(C(F)(F)F)s3)n2)c1 [SEW2871],dose-dependent partial activation

# Target: LPA1 (Homo sapiens, UniProt Q92633)
# Sequence (Q92633 whole entry, species assumed): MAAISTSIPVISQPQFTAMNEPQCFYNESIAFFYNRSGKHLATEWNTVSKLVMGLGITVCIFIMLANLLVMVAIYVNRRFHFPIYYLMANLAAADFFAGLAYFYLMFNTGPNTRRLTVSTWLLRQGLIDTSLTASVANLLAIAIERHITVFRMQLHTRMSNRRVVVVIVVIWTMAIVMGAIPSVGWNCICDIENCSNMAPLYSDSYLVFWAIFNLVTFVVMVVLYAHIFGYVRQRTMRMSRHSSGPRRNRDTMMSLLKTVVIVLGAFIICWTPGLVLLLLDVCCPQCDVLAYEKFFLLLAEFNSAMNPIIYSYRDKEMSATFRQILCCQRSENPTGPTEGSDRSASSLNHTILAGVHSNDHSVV
# Assay: LPA agonist/antagonist activity at LPA1 (Table 2)
# Type: cell-based
# Settings: not given
Structure (SMILES),IC50,Ki
Cc1cc2nc3c(=O)[nH]c(=O)nc-3n(CCOC(=O)CCC(=O)O)c2cc1C [NSC 3066],0.197 µM,0.0917 µM
Cn1c(=O)c2c(nc(C(=N)SCC(=O)O)n2C)n(C)c1=O [NSC 62586],0.234 µM,0.0917 µM

# Same assay, conditions: result in words
row,Structure (SMILES),LPA1 effect
1,OC1C(O)[C@@H](COP(O)(O)=S)O[C@H]1n1cnc2c(NCc3ccccc3)ncnc21 (some centres unmarked),No effect
2,COc1ccc(C(=O)CCCC(=O)O)c(OC)c1O [NSC 10167],No Effect
3,O=C(NC(Cc1ccc2c(c1)OCO2)C(=O)O)c1ccccc1 (centres unmarked) [NSC 10188],Weak agonist
4,COC(=O)C(CCC(=O)O)N1C(=O)c2ccccc2C1=O (centres unmarked) [NSC 16540],No effect
5,O=C(O)CCC(NC(=O)OCc1ccccc1)C(=O)NC(Cc1ccccc1)C(=O)O (centres unmarked) [NSC 18760],No effect
6,O=C(O)/C=C/C(=O)Nc1cccc(NC(=O)/C=C/C(=O)O)c1C(=O)O [NSC 47091],No effect
7,COc1ccc2c(c1)c(CC(=O)O)c(C)n2C(=O)c1ccc(Cl)cc1 [NSC 77541],Weak agonist
8,CCCC(=O)Nc1ncnc2c1ncn2C1OC2COP(=O)(O)OC2C1OC(=O)CCC (centres unmarked) [NSC 143108],Weak agonist
9,NCC(=O)NC(CSc1ccc([N+](=O)[O-])cc1[N+](=O)[O-])C(=O)NC(CCC(=O)O)C(=O)O (centres unmarked) [NSC 161613] (H-Gly-Cys(Dnp)-Glu-OH; configuration not given here),No effect
10,O=P(O)(O)OC[C@H]1O[C@@H](n2cnc3c(NCc4ccccc4)ncnc32)C(O)C1O (some centres unmarked) [NSC 255523],No effect

# Target: LPA2 (Homo sapiens, UniProt Q9HBW0)
# Sequence (Q9HBW0 whole entry, species assumed): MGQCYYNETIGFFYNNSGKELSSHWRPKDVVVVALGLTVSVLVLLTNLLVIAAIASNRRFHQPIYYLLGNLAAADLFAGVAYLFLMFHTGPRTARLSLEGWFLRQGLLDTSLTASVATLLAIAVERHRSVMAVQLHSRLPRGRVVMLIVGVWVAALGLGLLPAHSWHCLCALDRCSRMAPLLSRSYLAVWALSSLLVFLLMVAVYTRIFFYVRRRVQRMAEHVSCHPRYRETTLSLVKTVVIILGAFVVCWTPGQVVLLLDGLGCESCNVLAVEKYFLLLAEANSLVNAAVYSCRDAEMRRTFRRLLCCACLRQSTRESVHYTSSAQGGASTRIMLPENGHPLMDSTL
# Assay: LPA agonist/antagonist activity at LPA2 (Table 2)
# Type: cell-based
# Settings: not given
Structure (SMILES),IC50,Ki
Cc1cc2nc3c(=O)[nH]c(=O)nc-3n(CCOC(=O)CCC(=O)O)c2cc1C [NSC 3066],0.167 µM,0.0787 µM
COc1ccc(C(=O)CCCC(=O)O)c(OC)c1O [NSC 10167],0.088 µM,–
O=C(NC(Cc1ccc2c(c1)OCO2)C(=O)O)c1ccccc1 (centres unmarked) [NSC 10188],6.9 µM,–
COC(=O)C(CCC(=O)O)N1C(=O)c2ccccc2C1=O (centres unmarked) [NSC 16540],0.1 µM,–
O=C(O)CCC(NC(=O)OCc1ccccc1)C(=O)NC(Cc1ccccc1)C(=O)O (centres unmarked) [NSC 18760],0.02 µM,–
O=C(O)/C=C/C(=O)Nc1cccc(NC(=O)/C=C/C(=O)O)c1C(=O)O [NSC 47091],0.355 µM,–
Cn1c(=O)c2c(nc(C(=N)SCC(=O)O)n2C)n(C)c1=O [NSC 62586],0.172 µM,0.117 µM

# Same assay, conditions: 10 nM LPA
row,Structure (SMILES),LPA2 Inhibition of 10 nM LPA response
1,COc1ccc(C(=O)CCCC(=O)O)c(OC)c1O [NSC 10167],47.4%
2,COC(=O)C(CCC(=O)O)N1C(=O)c2ccccc2C1=O (centres unmarked) [NSC 16540],50.9%
3,O=C(O)CCC(NC(=O)OCc1ccccc1)C(=O)NC(Cc1ccccc1)C(=O)O (centres unmarked) [NSC 18760],53.3%
4,O=C(O)/C=C/C(=O)Nc1cccc(NC(=O)/C=C/C(=O)O)c1C(=O)O [NSC 47091],53.5%

# Same assay, conditions: 200 nM LPA; compound at 30JM
row,Structure (SMILES),LPA2 inhibition of 200 nM LPA response at 30JM
1,O=C(NC(Cc1ccc2c(c1)OCO2)C(=O)O)c1ccccc1 (centres unmarked) [NSC 10188],55.8%

# Same assay, conditions: result in words
row,Structure (SMILES),LPA2 effect
1,OC1C(O)[C@@H](COP(O)(O)=S)O[C@H]1n1cnc2c(NCc3ccccc3)ncnc21 (some centres unmarked),PotentiatesLPA-inducedactivation
2,COc1ccc2c(c1)c(CC(=O)O)c(C)n2C(=O)c1ccc(Cl)cc1 [NSC 77541],No Effect
3,CCCC(=O)Nc1ncnc2c1ncn2C1OC2COP(=O)(O)OC2C1OC(=O)CCC (centres unmarked) [NSC 143108],No Effect
4,NCC(=O)NC(CSc1ccc([N+](=O)[O-])cc1[N+](=O)[O-])C(=O)NC(CCC(=O)O)C(=O)O (centres unmarked) [NSC 161613] (H-Gly-Cys(Dnp)-Glu-OH; configuration not given here),No effect
5,O=P(O)(O)OC[C@H]1O[C@@H](n2cnc3c(NCc4ccccc4)ncnc32)C(O)C1O (some centres unmarked) [NSC 255523],No effect

# Target: T2, S1P1 mutant W6.48A (Homo sapiens, UniProt P21453, W269A)
# T2 construct: expressed in transfected cells
# T2 sequence (P21453 whole entry W269A): as the sequence (P21453 whole entry V261L) above, with L261V, W269A counted along it
# Assay: [35S]GTPγS binding, S1P1 W6.48A
# Type: biochemical
# Settings: S1P1 W6.48A, result in words, compared with S1P
# Experimental: as §1, §2
row,Structure (SMILES),ligand-induced GTPγS activation
1,FC(F)(F)c1cccc(-c2noc(-c3cc(-c4ccccc4)c(C(F)(F)F)s3)n2)c1 [SEW2871],similarly impaired activation

# Target: WT S1P1 (Homo sapiens, UniProt P21453)
# Sequence (P21453 whole entry): as the sequence (P21453 whole entry V261L) above, with L261V counted along it
# Assay: Ligand-induced [35S]GTPγS binding, WT S1P1
# Type: biochemical
# Design: expressed in transfected cells; host or cells: RH7777 (transient, pcDNA3.1)
# Settings: at 10 μM, versus vehicle
# Experimental: as §1, §2
row,Structure (SMILES),S1P1 receptor activation in the GTPγS activation assay
1,CCN(CC)CCOc1ccc(/C(C#N)=C\c2ccc(C(F)(F)F)cc2)cc1 [NSC59474],GTPγS activation greater than that of the vehicle
2,O=C(c1ccccc1Cc1ccc2ccc(C(F)(F)F)cc2c1)c1cccc2ccccc12 [NSC99548],GTPγS activation greater than that of the vehicle

# Same assay, conditions: result in words
row,Structure (SMILES),S1P1 agonist character
1,CCN(CC)CCOc1ccc(/C(C#N)=C\c2ccc(C(F)(F)F)cc2)cc1 [NSC59474],partial agonists
2,O=C(c1ccccc1Cc1ccc2ccc(C(F)(F)F)cc2c1)c1cccc2ccccc12 [NSC99548],partial agonists

# Target: S1P1 mutant L3.36E (Homo sapiens, UniProt P21453, L128E)
# Sequence (P21453 whole entry L128E): as the sequence (P21453 whole entry V261L) above, with L128E, L261V counted along it
# Assay: [35S]GTPγS binding, S1P1 L3.36E
# Type: biochemical
# Design: expressed in transfected cells; host or cells: RH7777 (transient, pcDNA3.1)
# Settings: S1P1 L3.36E, result in words, compared with S1P
# Experimental: as §1, §2
row,Structure (SMILES),ligand-induced GTPγS activation
1,FC(F)(F)c1cccc(-c2noc(-c3cc(-c4ccccc4)c(C(F)(F)F)s3)n2)c1 [SEW2871],similarly impaired activation

# Target: T3, S1P1 mutant F5.48G (Homo sapiens, UniProt P21453, F210G)
# T3 construct: expressed in transfected cells
# T3 sequence (P21453 whole entry F210G): as the sequence (P21453 whole entry V261L) above, with F210G, L261V counted along it
# Assay: [35S]GTPγS binding, S1P1 F5.48G
# Type: biochemical
# Settings: S1P1 F5.48G, result in words, compared with S1P
# Experimental: as §1, §2
row,Structure (SMILES),ligand-induced GTPγS activation
1,FC(F)(F)c1cccc(-c2noc(-c3cc(-c4ccccc4)c(C(F)(F)F)s3)n2)c1 [SEW2871],similarly impaired activation

# Target: T4, LPA3 (Homo sapiens, UniProt Q9UBY5)
# T4 sequence (Q9UBY5 1-353): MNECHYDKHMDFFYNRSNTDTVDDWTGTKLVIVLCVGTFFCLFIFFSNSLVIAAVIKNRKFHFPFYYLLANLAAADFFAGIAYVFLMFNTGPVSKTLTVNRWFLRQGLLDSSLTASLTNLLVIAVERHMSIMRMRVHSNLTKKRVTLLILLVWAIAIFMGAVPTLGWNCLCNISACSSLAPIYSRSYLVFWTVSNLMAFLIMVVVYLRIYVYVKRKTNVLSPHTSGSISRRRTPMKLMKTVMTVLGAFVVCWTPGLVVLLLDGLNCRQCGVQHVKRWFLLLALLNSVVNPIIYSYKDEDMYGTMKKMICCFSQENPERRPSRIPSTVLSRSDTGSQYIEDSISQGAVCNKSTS
# Assay: LPA agonist/antagonist activity at LPA3 (Table 2)
# Type: cell-based
# Settings: not given
Structure (SMILES),IC50,Ki
Cc1cc2nc3c(=O)[nH]c(=O)nc-3n(CCOC(=O)CCC(=O)O)c2cc1C [NSC 3066],0.103 µM,0.0448 µM
COc1ccc(C(=O)CCCC(=O)O)c(OC)c1O [NSC 10167],0.517 µM,–
COC(=O)C(CCC(=O)O)N1C(=O)c2ccccc2C1=O (centres unmarked) [NSC 16540],0.231 µM,–
O=C(O)CCC(NC(=O)OCc1ccccc1)C(=O)NC(Cc1ccccc1)C(=O)O (centres unmarked) [NSC 18760],0.009 µM,–
O=C(O)/C=C/C(=O)Nc1cccc(NC(=O)/C=C/C(=O)O)c1C(=O)O [NSC 47091],0.03 µM,–
Cn1c(=O)c2c(nc(C(=N)SCC(=O)O)n2C)n(C)c1=O [NSC 62586],0.035 µM,0.0157 µM
CCCC(=O)Nc1ncnc2c1ncn2C1OC2COP(=O)(O)OC2C1OC(=O)CCC (centres unmarked) [NSC 143108],1.31 µM,–
NCC(=O)NC(CSc1ccc([N+](=O)[O-])cc1[N+](=O)[O-])C(=O)NC(CCC(=O)O)C(=O)O (centres unmarked) [NSC 161613] (H-Gly-Cys(Dnp)-Glu-OH; configuration not given here),0.024 µM,–

# Same assay, conditions: 200 nM LPA
row,Structure (SMILES),LPA3 Inhibition of 200 nM LPA response
1,COc1ccc(C(=O)CCCC(=O)O)c(OC)c1O [NSC 10167],49.9%
2,COC(=O)C(CCC(=O)O)N1C(=O)c2ccccc2C1=O (centres unmarked) [NSC 16540],59.7%
3,O=C(O)CCC(NC(=O)OCc1ccccc1)C(=O)NC(Cc1ccccc1)C(=O)O (centres unmarked) [NSC 18760],58.7%
4,O=C(O)/C=C/C(=O)Nc1cccc(NC(=O)/C=C/C(=O)O)c1C(=O)O [NSC 47091],81.7%
5,NCC(=O)NC(CSc1ccc([N+](=O)[O-])cc1[N+](=O)[O-])C(=O)NC(CCC(=O)O)C(=O)O (centres unmarked) [NSC 161613] (H-Gly-Cys(Dnp)-Glu-OH; configuration not given here),69.8%

# Same assay, conditions: 200 nM LPA; compound at 30JM
row,Structure (SMILES),LPA3 inhibition of 200 nM LPA response at 30JM
1,COc1ccc2c(c1)c(CC(=O)O)c(C)n2C(=O)c1ccc(Cl)cc1 [NSC 77541],76.2%
2,CCCC(=O)Nc1ncnc2c1ncn2C1OC2COP(=O)(O)OC2C1OC(=O)CCC (centres unmarked) [NSC 143108],61.0%

# Same assay, conditions: result in words
row,Structure (SMILES),LPA3 effect
1,OC1C(O)[C@@H](COP(O)(O)=S)O[C@H]1n1cnc2c(NCc3ccccc3)ncnc21 (some centres unmarked),No effect
2,O=C(NC(Cc1ccc2c(c1)OCO2)C(=O)O)c1ccccc1 (centres unmarked) [NSC 10188],No effect
3,O=P(O)(O)OC[C@H]1O[C@@H](n2cnc3c(NCc4ccccc4)ncnc32)C(O)C1O (some centres unmarked) [NSC 255523],PotentiatesLPA-inducedactivation
